Tested on: human stromal cells
Assay: inhibition of proliferation of human stromal cells stimulated with PDGF
Assay type: cell-based
Description: (§1) This assay is a model for restenosis and treatment of atherosclerosis and coronary artery disease. Stromal cells were starved in serum-free media for one day and then stimulated with 50 ng/ml PDGF-BB. The drags were added at the indicated concentrations one hour prior to PDGF stimulation. Tritiated thymidine was added for one day at the time of PDGF stimulation and the cells were harvested and counted by liquid scintillation counting 24 hrs later. Background counts (i.e., starved cells) were approximately 1% of control levels.
Another assay for measuring activity of the inventive compounds involves determining PDGF (platelet derived growth factor) proliferative response using human-derived stromal cells. Human stromal cells are plated (e.g., about 2000 cells per well) in defined media (e.g., 69% McCoy's, 12.5% fetal calf serum, 12.5% horse serum, 1% antibiotics, 1% glutamine, 1% vitamin supplement, 0.8% essential amino acids, 1% sodium pyruvate, 1% sodium bicarbonate, 0.4% non-essential amino acids and 0.36% hydrocortisone). Two to three days later, the stromal cells are starved in serum-free media. Twenty four hours later, the cells are treated with a stimulating agent, such as PDGF-AA, PDGF-BB or basic FGF (fibroblast growth factor) with or without IL-1α or TNF, and tritiated thymidine. Cell proliferation is determined by liquid scintillation counting.
as §1, with “drugs” for “drags”

Compound: Cn1cnc2c1c(=O)n(CCCCC(=O)CCl)c(=O)n2C [CT1595, 1-(6-chloro-5-oxohexyl)-3,7-dimethylxanthine]
- inhibition of human stromal cell proliferation (FIG. 7, 50 ng/ml PDGF-BB, in words): strongly inhibit proliferation
- IC50 (Homo sapiens, read-out: IC50, inhibition of human stromal cell proliferation): < 10 µM
